Source: PubChem BioAssay AID1963861 (Molecular Pharmacology Branch, DTP, NCI, 2024)

Tested on: 885724-159-R-J1-PDC KRAS PDC multicell spheroid viability
Test: Anticancer human tumor 885724-159-R-J1-PDC patient-derived pancreatic adenocarcinoma cell line growth inhibition [KRAS2]
Details: for IC50: curve of first compound; for viability, T/C: stronger effect = lower value
How it was run: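 Combination screen of spheroid viability in tumor-cell co-cultures with endothelial (HUVEC) and mesenchymal stem cell stroma. Each agent was tested in half-log dilutions, topping at clinical Cmax or at 10 microM without a known Cmax.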

[1] = second compound 0.1 µM, first compound 0.01 µM
[2] = second compound 0.1 µM, first compound 0.0316 µM
[3] = second compound 0.1 µM, first compound 0.1 µM
[4] = second compound 0.1 µM, first compound 0.316 µM
[5] = second compound 0.1 µM, first compound 1 µM
[6] = second compound 0.1 µM, first compound 3.16 µM
[7] = second compound 0.316 µM, first compound 0.01 µM
[8] = second compound 0.316 µM, first compound 0.0316 µM
[9] = second compound 0.316 µM, first compound 0.1 µM
[10] = second compound 0.316 µM, first compound 0.316 µM
[11] = second compound 0.316 µM, first compound 1 µM
[12] = second compound 0.316 µM, first compound 3.16 µM
[13] = second compound 1 µM, first compound 0.01 µM
[14] = second compound 1 µM, first compound 0.0316 µM
[15] = second compound 1 µM, first compound 0.1 µM
[16] = second compound 1 µM, first compound 0.316 µM
[17] = second compound 1 µM, first compound 1 µM
[18] = second compound 1 µM, first compound 3.16 µM
[19] = second compound 3.16 µM, first compound 0.01 µM
[20] = second compound 3.16 µM, first compound 0.0316 µM
[21] = second compound 3.16 µM, first compound 0.1 µM
[22] = second compound 3.16 µM, first compound 0.316 µM
[23] = second compound 3.16 µM, first compound 1 µM
[24] = second compound 3.16 µM, first compound 3.16 µM
[25] = second compound 10 µM, first compound 0.01 µM
[26] = second compound 10 µM, first compound 0.0316 µM
[27] = second compound 10 µM, first compound 0.1 µM
[28] = second compound 10 µM, first compound 0.316 µM
[29] = second compound 10 µM, first compound 1 µM
[30] = second compound 10 µM, first compound 3.16 µM
[31] = second compound 0.1 µM, first compound 10 µM
[32] = second compound 0.316 µM, first compound 10 µM
[33] = second compound 1 µM, first compound 10 µM
[34] = second compound 3.16 µM, first compound 10 µM
[35] = second compound 10 µM, first compound 10 µM
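Note: spheroids exposed to agents for 7 days before readout.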

Row | Structure (SMILES) | IC50 (second compound 0.1 µM) | IC50 (second compound 0.316 µM) | IC50 (second compound 1 µM) | IC50 (second compound 3.16 µM) | IC50 (second compound 10 µM) | viability, T/C [2] | viability, T/C [3] | viability, T/C [4] | viability, T/C [5] | viability, T/C [6] | viability, T/C [8] | viability, T/C [9] | viability, T/C [10] | viability, T/C [11] | viability, T/C [14] | viability, T/C [15] | viability, T/C [20] | viability, T/C [21] | viability, T/C [26] | viability, T/C [27] | also measured
1 | CC1COCCN1c1cc(-c2ccnn2C)c2ccnc(-c3ccn[nH]3)c2n1 (stereo not given) + CC1OCC2(CCN(c3cnc(Sc4ccnc(N)c4Cl)c(N)n3)CC2)C1N | > 3.16 µM | > 3.16 µM | 0.852 µM | 0.573 µM | 0.236 µM | 87.2% | 67.6% | 60.1% | 53% | 52.1% | 75.5% | 61.4% | 60.2% | 54.7% | 69.1% | 63% | 67.2% | 56.9% | 59.7% | 53.8% | viability, T/C [1]: 91.3%; viability, T/C [7]: 81%; viability, T/C [12]: 49.8%; viability, T/C [13]: 80.7%; viability, T/C [16]: 58.4%; viability, T/C [17]: 47.9%; viability, T/C [18]: 42.7%; viability, T/C [19]: 73.5%; viability, T/C [22]: 56%; viability, T/C [23]: 45.9%; viability, T/C [24]: 42.2%; viability, T/C [25]: 65.3%; viability, T/C [28]: 49.2%; viability, T/C [29]: 43.2%; viability, T/C [30]: 41%
2 | Cn1nccc1Nc1nccc(-c2cc3c(s2)C(C)(C)N(CCN2CCOCC2)C3=O)n1 + CC1OCC2(CCN(c3cnc(Sc4ccnc(N)c4Cl)c(N)n3)CC2)C1N | 0.33 µM | 0.239 µM | 0.223 µM | 0.191 µM | 0.105 µM | 87.4% | 68.4% | 50.4% | 38.2% | 32.8% | 82.8% | 65.9% | 43.2% | 35.7% | 74.9% | 61.7% | 64.7% | 59.9% | 57% | 51.4% | viability, T/C [31]: 28.8%; viability, T/C [12]: 30.7%; viability, T/C [32]: 26.6%; viability, T/C [16]: 44.8%; viability, T/C [17]: 33.3%; viability, T/C [18]: 27.2%; viability, T/C [33]: 26%; viability, T/C [22]: 42.2%; viability, T/C [23]: 28.8%; viability, T/C [24]: 25.8%; viability, T/C [34]: 24.1%; viability, T/C [28]: 35.9%; viability, T/C [29]: 26.6%; viability, T/C [30]: 22.4%; viability, T/C [35]: 20.6%
3 | CC(=O)OC12COC1CC(O)C1(C)C(=O)C(O)C3=C(C)C(OC(=O)C(O)C(NC(=O)OC(C)(C)C)c4ccccc4)CC(O)(C(OC(=O)c4ccccc4)C21)C3(C)C (stereo not given) + CNCc1ccccc1-c1csc(C(C)Nc2nc(C)nc3cc(OC)c(OC)cc23)c1 | > 3.16 µM | > 3.16 µM | > 3.16 µM | < 0.01 µM | < 0.01 µM | 93.5% | 97% | 96.9% | 105% | 104% | 92.2% | 96.2% | 98.9% | 101% | 97.9% | 104% | 93.9% | 1.4% | 0.17% | 0.21% | viability, T/C [1]: 81.2%; viability, T/C [7]: 85.6%; viability, T/C [12]: 100%; viability, T/C [13]: 84.6%; viability, T/C [16]: 101%; viability, T/C [17]: 103%; viability, T/C [18]: 105%; viability, T/C [19]: 0.36%; viability, T/C [22]: 0.54%; viability, T/C [23]: 13%; viability, T/C [24]: 110%; viability, T/C [25]: 0.32%; viability, T/C [28]: 0.2%; viability, T/C [29]: 0.22%; viability, T/C [30]: 0.28%
4 | CN(C)C/C=C/C(=O)Nc1cc2c(Nc3ccc(F)c(Cl)c3)ncnc2cc1O[C@H]1CCOC1 + CNCc1ccccc1-c1csc(C(C)Nc2nc(C)nc3cc(OC)c(OC)cc23)c1 | > 0.1 µM | > 0.1 µM | > 0.1 µM | 0.00235 µM | < 0.000316 µM | 77.9% | 66.7% | – | – | – | 74% | 63.4% | – | – | 70.3% | 67.5% | 71.9% | 38% | 0.22% | 0.25% | viability, T/C (second compound 0.1 µM, first compound 0.000316 µM): 104%; viability, T/C (second compound 0.1 µM, first compound 0.001 µM): 95.4%; viability, T/C (second compound 0.1 µM, first compound 0.00316 µM): 93.2%; viability, T/C [1]: 89.8%; viability, T/C (second compound 0.316 µM, first compound 0.000316 µM): 108%; viability, T/C (second compound 0.316 µM, first compound 0.001 µM): 107%; viability, T/C (second compound 0.316 µM, first compound 0.00316 µM): 86.6%; viability, T/C [7]: 81.7%; viability, T/C (second compound 1 µM, first compound 0.000316 µM): 109%; viability, T/C (second compound 1 µM, first compound 0.001 µM): 104%; viability, T/C (second compound 1 µM, first compound 0.00316 µM): 94.6%; viability, T/C [13]: 83.1%; viability, T/C (second compound 3.16 µM, first compound 0.000316 µM): 105%; viability, T/C (second compound 3.16 µM, first compound 0.001 µM): 123%; viability, T/C (second compound 3.16 µM, first compound 0.00316 µM): 0.97%; viability, T/C [19]: 0.27%; viability, T/C (second compound 10 µM, first compound 0.000316 µM): 0.22%; viability, T/C (second compound 10 µM, first compound 0.001 µM): 0.26%; viability, T/C (second compound 10 µM, first compound 0.00316 µM): 0.18%; viability, T/C [25]: 0.15%
5 | COC(=O)c1ccc2c(C(=Nc3ccc(N(C)C(=O)CN4CCN(C)CC4)cc3)c3ccccc3)c(O)[nH]c2c1 + CNCc1ccccc1-c1csc(C(C)Nc2nc(C)nc3cc(OC)c(OC)cc23)c1 | 2.55 µM | 1.86 µM | 2.17 µM | < 0.0316 µM | < 0.0316 µM | 111% | 107% | 117% | 110% | 36.2% | 108% | 110% | 107% | 102% | 106% | 115% | 1.59% | 4.08% | 0.26% | 0.2% | viability, T/C [31]: 1.52%; viability, T/C [12]: 6.06%; viability, T/C [32]: 0.58%; viability, T/C [16]: 107%; viability, T/C [17]: 96.7%; viability, T/C [18]: 27.2%; viability, T/C [33]: 1.19%; viability, T/C [22]: 1.18%; viability, T/C [23]: 0.58%; viability, T/C [24]: 1.26%; viability, T/C [34]: 0.34%; viability, T/C [28]: 0.15%; viability, T/C [29]: 0.33%; viability, T/C [30]: 0.38%; viability, T/C [35]: 0.48%
6 | O=C(c1cc(Cc2n[nH]c(=O)c3ccccc23)ccc1F)N1CCN(C(=O)C2CC2)CC1 + CNCc1ccccc1-c1csc(C(C)Nc2nc(C)nc3cc(OC)c(OC)cc23)c1 | > 10 µM | > 10 µM | > 10 µM | < 0.0316 µM | < 0.0316 µM | 110% | 112% | 98.4% | 101% | 96.2% | 107% | 107% | 103% | 96.4% | 105% | 112% | 1.34% | 1.56% | 0.23% | 0.26% | viability, T/C [31]: 84.7%; viability, T/C [12]: 94.6%; viability, T/C [32]: 81.7%; viability, T/C [16]: 104%; viability, T/C [17]: 95.7%; viability, T/C [18]: 91.9%; viability, T/C [33]: 81.8%; viability, T/C [22]: 0.78%; viability, T/C [23]: 0.88%; viability, T/C [24]: 1%; viability, T/C [34]: 1.09%; viability, T/C [28]: 0.21%; viability, T/C [29]: 0.28%; viability, T/C [30]: 0.28%; viability, T/C [35]: 0.68%
